Measured values published in patent publication US20070128217A1 (priority 2003, published 2007).

What was measured:
[1] = test system: rabbit serum obtained by immunizing a rabbit with the SARS-CoV strain Frankfurt 1; format: binding; set-up: Binding of a rabbit serum to linear peptides / Binding of a rabbit serum to looped peptides / Rabbit serum linear peptides / Rabbit serum looped peptides / Binding of a rabbit serum to linear peptides of protein N of SARS-CoV Urbani (Rabbit serum linear peptides) / Binding of a rabbit serum to looped/cyclic peptides of protein N of SARS-CoV Urbani (Rabbit serum looped peptides): unit not given here
[2] = test system: recombinant human anti-SARS-CoV antibody 03-018; format: binding; set-up: Binding of antibody 03-018 to linear peptides of the N protein of SARS-CoV Urbani / Binding of antibody 03-018 to looped/cyclic peptides of the N protein of SARS-CoV Urbani: unit not given here
[3] = test system: control sera (pooled serum of ten healthy LUMC hospital workers; commercial negative donor pooled serum from the Dutch bloodbank); format: binding, human; set-up: Binding of Control serum LUMC to linear peptides / Binding of Control serum Blood-bank to linear peptides / Binding of Control serum LUMC to looped peptides / Binding of Control Serum Blood-Bank to Looped peptides / Binding of Control serum LUMC to linear peptides of the protein M of SARS-CoV Urbani / Binding of Control serum Blood-bank to linear peptides of the protein M of SARS-CoV Urbani / Binding of Control serum LUMC to looped peptides of the protein M of SARS-CoV Urbani / Binding of Control Serum Blood-Bank to Looped peptides of the protein M of SARS-CoV Urbani: unit not given here
[4] = test system: antibodies in sera from SARS patients (sera 1a, 1b, 2, 6, 37, 62, London, SARS-yellow, SARS-green); format: binding, human; set-up: Binding of serum 6 to linear peptides of protein X1 of SARS-CoV Urbani / Binding of serum 37 to linear peptides of protein X1 of SARS-CoV Urbani / Binding of serum 6 to looped/cyclic peptide (PEPSCAN-ELISA) / Binding of serum 37 to looped/cyclic peptide (PEPSCAN-ELISA) / Binding of serum 37 to looped/cyclic peptides of protein X1 of SARS-CoV Urbani / Binding of serum 6 to linear peptides of protein X2 / Binding of serum 37 to linear peptides of protein X2 / Binding of serum 37 to looped/cyclic peptides of protein X2 of SARS-CoV Urbani / Binding of serum 6 to linear peptides of protein M of SARS-CoV Urbani / Binding of serum 37 to linear peptides of protein M of SARS-CoV Urbani / Binding of serum 6 to looped/cyclic peptides of protein M of SARS-CoV Urbani / Binding of serum 37 to looped/cyclic peptides of protein M of SARS-CoV Urbani / Binding of serum 6 to linear peptides of protein X3 of SARS-CoV Urbani / Binding of serum 37 to linear peptides of protein X3 of SARS-CoV Urbani / Binding of serum 37 to looped/cyclic peptides of protein X3 of SARS-CoV Urbani / Binding of serum 6 to linear peptides of protein X4 of SARS-CoV Urbani / Binding of serum 37 to linear peptides of protein X4 of SARS-CoV Urbani / Binding of serum 37 to looped/cyclic peptides of protein X4 of SARS-CoV Urbani / Binding of serum 6 to linear peptides of protein X5 of SARS-CoV Urbani / Binding of serum 37 to linear peptides of protein X5 of SARS-CoV Urbani / Binding of serum 37 to looped/cyclic peptides of protein X5 of SARS-CoV Urbani / Binding of serum 6 to linear peptides of protein N of SARS-CoV Urbani / Binding of serum 37 to linear peptides of protein N of SARS-CoV Urbani / Binding of serum 6 to linear peptide (PEPSCAN-ELISA) / Binding of serum 1a to looped/cyclic peptides of protein N of SARS-CoV Urbani / Binding of serum 1b to looped/cyclic peptides of protein N of SARS-CoV Urbani / Binding of serum 2 to looped/cyclic peptides of protein N of SARS-CoV Urbani / Binding of serum 6 to looped/cyclic peptides of protein N of SARS-CoV Urbani / Binding of serum 37 to looped/cyclic peptides of protein N of SARS-CoV Urbani / Binding of serum 62 to looped/cyclic peptides of protein N of SARS-CoV Urbani / Binding of serum London to looped/cyclic peptides of protein N of SARS-CoV Urbani / Binding of serum SARS-green to looped/cyclic peptides of protein N of SARS-CoV Urbani: unit not given here

Row | Sequence | Binding of a rabbit serum to linear peptides of protein N of SARS-CoV Urbani (Rabbit serum linear peptides) [1] | Binding of a rabbit serum to looped/cyclic peptides of protein N of SARS-CoV Urbani (Rabbit serum looped peptides) [1] | Binding of antibody 03-018 to linear peptides of the N protein of SARS-CoV Urbani [2] | Binding of antibody 03-018 to looped/cyclic peptides of the N protein of SARS-CoV Urbani [2] | Binding of Control Serum Blood-Bank to Looped peptides [3] | Binding of Control serum Blood-bank to linear peptides [3] | Binding of Control serum LUMC to linear peptides [3] | Binding of Control serum LUMC to looped peptides [3] | Binding of serum 1a to linear peptides of protein N of SARS-CoV Urbani [4] | Binding of serum 1a to looped/cyclic peptides of protein N of SARS-CoV Urbani [4] | Binding of serum 1b to linear peptides of protein N of SARS-CoV Urbani [4] | Binding of serum 1b to looped/cyclic peptides of protein N of SARS-CoV Urbani [4] | Binding of serum 2 to linear peptides of protein N of SARS-CoV Urbani [4] | Binding of serum 2 to looped/cyclic peptides of protein N of SARS-CoV Urbani [4] | Binding of serum 6 to looped/cyclic peptides of protein N of SARS-CoV Urbani [4] | Binding of serum 37 to looped/cyclic peptides of protein N of SARS-CoV Urbani [4] | Binding of serum 62 to looped/cyclic peptides of protein N of SARS-CoV Urbani [4] | Binding of serum London to looped/cyclic peptides of protein N of SARS-CoV Urbani [4] | Binding of serum SARS-green to looped/cyclic peptides of protein N of SARS-CoV Urbani [4] | Binding of serum SARS-yellow to looped/cyclic peptides of protein N of SARS-CoV Urbani [4] | other results
1 | PKQRRPQGLPNNTAS | 0.2 | 0.2 | 0.2 | 0.3 | 0.8 | 0.8 | 0.7 | 1.0 | 0.2 | 0.5 | 0.1 | 0.5 | 0.4 | 0.8 | 0.4 | 0.8 | 0.7 | 0.6 | 3.1 | 0.9 | Binding of serum 6 to linear peptides of protein N of SARS-CoV Urbani [4]: 0.2; Binding of serum 37 to linear peptides of protein N of SARS-CoV Urbani [4]: 0.9; Binding of serum 62 to linear peptides of protein N of SARS-CoV Urbani [4]: 0.7; Binding of serum London to linear peptides of protein N of SARS-CoV Urbani [4]: 0.6; Binding of serum SARS-green to linear peptides of protein N of SARS-CoV Urbani [4]: 0.6; Binding of serum SARS-yellow to linear peptides of protein N of SARS-CoV Urbani [4]: 0.6
2 | KDNVILLNKHIDAYK | 0.2 | 0.4 | 0.1 | 0.2 | – | – | – | – | 0.3 | 0.3 | 0.2 | 0.2 | 0.3 | 0.2 | 0.1 | 0.4 | 0.3 | 0.3 | 0.1 | 0.4 | Control Serum Blood-Bank Looped peptides [3]: 0.5; Control serum Blood-bank linear peptides [3]: 0.8; Control serum LUMC linear peptides [3]: 0.7; Control serum LUMC looped peptides [3]: 0.5; Binding of serum 6 to linear peptides of protein N of SARS-CoV Urbani [4]: 0.3; Binding of serum 37 to linear peptides of protein N of SARS-CoV Urbani [4]: 0.7; Binding of serum 62 to linear peptides of protein N of SARS-CoV Urbani [4]: 0.8; Binding of serum London to linear peptides of protein N of SARS-CoV Urbani [4]: 0.6; Binding of serum SARS-green to linear peptides of protein N of SARS-CoV Urbani [4]: 0.4; Binding of serum SARS-yellow to linear peptides of protein N of SARS-CoV Urbani [4]: 0.8
3 | NQLESKVSGKGQQQQ | 0.2 | 0.5 | 0.1 | 0.3 | 0.7 | 0.8 | 0.9 | 0.7 | – | 0.4 | – | 0.2 | – | 0.5 | 0.3 | 0.6 | 0.5 | 0.5 | 0.3 | 0.6 | Binding of serum 1a to linear peptide (PEPSCAN-ELISA) [4]: 0.3; Binding of serum 1b to linear peptide (PEPSCAN-ELISA) [4]: 0.2; Binding of serum 2 to linear peptide (PEPSCAN-ELISA) [4]: 0.3; Binding of serum 6 to linear peptide (PEPSCAN-ELISA) [4]: 0.2; Binding of serum 37 to linear peptide (PEPSCAN-ELISA) [4]: 0.7; Binding of serum 62 to linear peptide (PEPSCAN-ELISA) [4]: 0.8; Binding of serum London to linear peptide (PEPSCAN-ELISA) [4]: 0.6; Binding of serum SARS-green to linear peptide (PEPSCAN-ELISA) [4]: 0.5; Binding of serum SARS-yellow to linear peptide (PEPSCAN-ELISA) [4]: 0.7
4 | DSTDNNQNGGRNGAR | 0.1 | 0.5 | 0.2 | 0.3 | 0.6 | 0.8 | 0.7 | 0.7 | 0.2 | 0.4 | 0.1 | 0.3 | 0.2 | 0.5 | 0.3 | 0.7 | 0.4 | 0.5 | 0.8 | 0.5 | Binding of serum 6 to linear peptides of protein N of SARS-CoV Urbani [4]: 0.2; Binding of serum 37 to linear peptides of protein N of SARS-CoV Urbani [4]: 1.0; Binding of serum 62 to linear peptides of protein N of SARS-CoV Urbani [4]: 0.8; Binding of serum London to linear peptides of protein N of SARS-CoV Urbani [4]: 0.5; Binding of serum SARS-green to linear peptides of protein N of SARS-CoV Urbani [4]: 0.5; Binding of serum SARS-yellow to linear peptides of protein N of SARS-CoV Urbani [4]: 0.5
5 | SAAEASKKPRQKRTA | 0.2 | 0.3 | 0.1 | 0.2 | 0.4 | 0.8 | 0.8 | 0.4 | – | 0.2 | – | 0.1 | – | 0.2 | 0.1 | 0.4 | 0.3 | 0.3 | 0.1 | 0.2 | Recognition of the peptide by sera of SARS-CoV infected individuals, and form (linear, looped/cyclic) in which it is recognized [4]: recognized in linear form
